Entries after “also recorded” stand apart in the source; their conditions may differ.
What was measured:
HMTK1 [1] = assay: Binding of purified HMTK1 to immobilized pYEEI peptide; design: species or system Monosiga brevicollis; conditions: 20 µg protein, 30 µl immobilized peptide, 1 hour at 4°C; Coomassie; Fig. 3A
Description: (§1) The PTB ligand-containing peptide, Phe-containing PTB control, and pYEEI peptide (EPQpYEEIG) were linked to Affi-Gel 15 resin (Bio-Rad) following the manufacturer's protocols. Purified HMTK1 or the isolated PTB domain were incubated for 1 hour at 4°C with the immobilized peptides. After binding, the beads were washed 4 times with 1 ml of binding buffer (50 mM Tris-HCl pH 7.5, 5 mM EDTA, 100 mM NaCl, 0.1% Triton X-100, 1 mM DTT, 0.5 mM Na3VO4). Bound proteins were eluted with SDS-PAGE loading buffer, separated by 10% SDS-PAGE, and visualized either by Coomassie blue staining or by Western blotting.
(§2) Figure 3 Binding reactions with pYEEI-containing peptide. (A). Purified HMTK1 or c-Src (20 µg) were mixed with 30 µl of immobilized pYEEI peptide (pY) or control resin (C) in total volumes of 175 µl for 1 hour at 4°C. After binding, the resins were washed 4 times with 200 µl of binding buffer. Bound proteins were eluted with SDS-PAGE sample buffer and analyzed by gel electrophoresis with Coomassie blue staining. (B). The isolated HMTK1 PTB domain (8 µg) was incubated with 50 µl of immobilized pYEEI peptide (pY) or control resin (C) in total volumes of 400 µl for 1 hour at 4°C. After washing, bound proteins were eluted with SDS-PAGE sample buffer and analyzed by Western blotting with anti-GST antibody. (C). […] After washing, bound proteins were analyzed by anti-FLAG Western blotting. […]

c-Src = assay: Binding of purified Src to immobilized pYEEI peptide; conditions: positive control; 20 µg protein, 30 µl immobilized peptide, 1 hour at 4°C; Coomassie; Fig. 3A
Description: as §1, §2

[2] = system: isolated HMTK1 PTB domain; assay: Pulldown of isolated HMTK1 PTB domain with immobilized pYEEI peptide; format: binding, Monosiga brevicollis; conditions: 8 µg PTB domain, 50 µl immobilized peptide, 1 hour at 4°C; anti-GST Western; Fig. 3B
Description: HMTK1 was expressed in Spodoptera frugiperda (Sf9) insect cells using the Bac-to-Bac system (Invitrogen). Sf9 cells (800 ml) were infected with HMTK1 baculovirus and harvested after three days. Cells were lysed in a French pressure cell, and His-tagged HMTK1 was purified using nickel-nitrilotriacetic acid resin (Qiagen), as described previously. Peak fractions were pooled and concentrated in an Amicon Ultrafiltration device (molecular weight cutoff: 30,000 daltons). The purified protein was stored in 40% glycerol at −20°C. The isolated PTB domain of HMTK1 was produced as a fusion with glutathione S-transferase (GST). E. coli cells (1 liter) expressing the GST fusion protein were lysed in a French pressure cell, and the GST-PTB protein was purified by chromatography on a glutathione-agarose column (Molecular Probes).
The PTB ligand-containing peptide, Phe-containing PTB control, and pYEEI peptide (EPQpYEEIG) were linked to Affi-Gel 15 resin (Bio-Rad) following the manufacturer's protocols. […]
(§3) Figure 3 Binding reactions with pYEEI-containing peptide. […] Bound proteins were eluted with SDS-PAGE sample buffer and analyzed by gel electrophoresis with Coomassie blue staining. […] After washing, bound proteins were eluted with SDS-PAGE sample buffer and analyzed by Western blotting with anti-GST antibody. […] After washing, bound proteins were analyzed by anti-FLAG Western blotting. […]

[3] = system: FLAG-tagged wild-type HMTK1; assay: Pulldown of FLAG-tagged wild-type HMTK1 from SYF cell lysates with immobilized peptides; format: binding, Monosiga brevicollis; conditions: immobilized peptide; anti-FLAG Western; Fig. 3C
Description: (§4) For expression in insect cells, HMTK1 DNA (encoding residues 341–761) was cloned into the EcoRI site of pFastbac-Hta (Invitrogen). FLAG-tagged HMTK1 was expressed in mammalian cells by subcloning into the BglII and BamHI sites of p3XFLAG-CMV (Sigma). The ΔPTB version of this construct was prepared by PCR amplification and subsequent recloning into the BamHI and EcoRI sites of p3XFLAG-CMV. Site-directed mutagenesis of FLAG-HMTK1 was carried out using the QuikChange kit (Stratagene). To express the isolated third PTB domain (residues 341–474) in bacterial cells, this PCR fragment was cloned into the EcoRI site of plasmid pGEX-4T-1 (GE Healthcare). All constructs were confirmed by DNA sequencing.
(§5) The PTB ligand-containing peptide, Phe-containing PTB control, and pYEEI peptide (EPQpYEEIG) were linked to Affi-Gel 15 resin (Bio-Rad) following the manufacturer's protocols. Purified HMTK1 or the isolated PTB domain were incubated for 1 hour at 4°C with the immobilized peptides. […]
as §3

FLAG-tagged ΔPTB HMTK1 = assay: Pulldown of FLAG-tagged ΔPTB HMTK1 from SYF cell lysates with immobilized pYEEI; format: binding, Monosiga brevicollis; conditions: immobilized peptide; anti-FLAG Western; Fig. 3C
Description: as §4, §5, §3

HMTK1 [4] = assay: Binding of purified HMTK1 to immobilized PTB ligand peptides; design: species or system Monosiga brevicollis; conditions: 6.6 µg HMTK1; peptide on Affi-Gel resin; 1 hour at 4°C; anti-His6 Western; Fig. 5A
Description: as §1
Figure 5 Substrate targeting by PTB ligand. (A) Purified HMTK1 (6.6 µg) was incubated with PTB ligand-containing substrate ([…]pYATLG), PTB control substrate ([…]), pYEEI peptide, or control resin in final volumes of 60 µl. After washing, bound proteins were eluted with SDS-PAGE sample buffer and analyzed by Western blotting with anti-His6-tag antibody. (B) The kinase activity of HMTK1 (300 nM) toward the PTB ligand-containing substrate or PTB control substrate (shown schematically) was determined using the phosphocellulose paper assay. The reaction contained 20 mM Tris-HCl (pH 7.4), 10 mM MgCl2, 0.2 mM ATP, 30 µM peptide, and [γ-^32P]-ATP. […] Incorporation of ^32P into the peptides was determined by scintillation counting.

HMTK1 [5] = assay: Substrate targeting: phosphorylation of PTB ligand-containing substrate and control by HMTK1; format: biochemical, Monosiga brevicollis; conditions: 30 µM peptide, 300 nM HMTK1, 20 mM Tris-HCl pH 7.4, 10 mM MgCl2, 0.2 mM ATP, Fig. 5B
Description: Kinase assays were performed by two methods. Initial activity measurements were performed by the phosphocellulose paper binding assay. Reaction mixtures contained 20 mM Tris-HCl (pH 7.4), 10 mM MgCl2, 0.2 mM ATP, [γ-^32P]-ATP (30–50 cpm/pmol), and varying amounts of HMTK1 and peptide substrates. All peptide substrates were purified by high pressure liquid chromatography and characterized by mass spectrometry prior to use. The following substrates were used: c-Src peptide, […]; MbSTAT peptide, […]; RTKB2 peptide 1, […]; RTKB2 peptide 2, […]; SH2 binding substrates (varying linker lengths), […]pYEEIG, […]pYEEIG, and […]pYEEIG; SH2 control substrate, […]. […] Kinetic constants were determined by nonlinear fitting to the [substrate] vs. velocity curves using GraphPad Prism 4.
Figure 5 Substrate targeting by PTB ligand. […] After washing, bound proteins were eluted with SDS-PAGE sample buffer and analyzed by Western blotting with anti-His6-tag antibody. (B) The kinase activity of HMTK1 (300 nM) toward the PTB ligand-containing substrate or PTB control substrate (shown schematically) was determined using the phosphocellulose paper assay. […] Incorporation of ^32P into the peptides was determined by scintillation counting.

HMTK1 [6] = assay: Steady-state kinetics, continuous spectrophotometric assay; format: biochemical, Monosiga brevicollis; conditions: HMTK1 0.3–0.5 µM, peptide 0–700 µM, 100 mM Tris pH 7.4, 10 mM MgCl2, 2 mM ATP, 30°C
Description: Kinase assays were performed by two methods. Initial activity measurements were performed by the phosphocellulose paper binding assay. Reaction mixtures contained 20 mM Tris-HCl (pH 7.4), 10 mM MgCl2, 0.2 mM ATP, [γ-^32P]-ATP (30–50 cpm/pmol), and varying amounts of HMTK1 and peptide substrates. All peptide substrates were purified by high pressure liquid chromatography and characterized by mass spectrometry prior to use. The following substrates were used: c-Src peptide, […]; MbSTAT peptide, […]; RTKB2 peptide 1, […]; RTKB2 peptide 2, […]; SH2 binding substrates (varying linker lengths), […]pYEEIG, […]pYEEIG, and […]pYEEIG; SH2 control substrate, […]. Initial rate kinetic measurements on the PTB ligand-containing substrate ([…]pYATLG) and on the Phe-containing PTB control ([…]) were carried out using a continuous spectrophotometric assay. Reactions were performed at 30°C in a final volume of 50 µl. The reactions contained 100 mM Tris pH 7.4, 10 mM MgCl2, 2 mM ATP, 1.5 mM phosphoenolpyruvate, 90 units/ml of pyruvate kinase, 109 units/ml of lactate dehydrogenase, and 1.2 mg/ml of NADH. For determination of Km values, the enzyme concentrations were 0.3–0.5 µM and the peptide concentrations ranged from 0–700 µM. Kinetic constants were determined by nonlinear fitting to the [substrate] vs. velocity curves using GraphPad Prism 4.

Hck = conditions: Src family kinase Hck with the same peptide; ref [24]; cited from earlier work
Description: We selected a pair of peptides for further study. […] We synthesized an individual peptide in which the sequence NFTNPVpYATG was connected to a tyrosine kinase substrate sequence.

HMTK1 PTB domain = assay: Peptide array (PepSpots) probed with biotinylated HMTK1 PTB domain; format: binding, Monosiga brevicollis; conditions: 10 µg/ml PTB, 5% BSA, 20 mM Hepes pH 7.3, 30 min at room temperature; streptavidin-HRP chemiluminescence; Fig. 4A
Description: The PTB domain of HMTK1 was cloned as an EcoR1 fragment into a modified pGEX (GE Healthcare Life Sciences) bicistronic vector pGEX-4T-BiotinN to express the gene of interest and the biotin ligase (BirA) in the same cell ([19]; Chan et al., in press). […] The resulting pGEX-BiotinN-PTB construct was transformed into E. coli BL21(DE3) cells for expression. GST-biotin-PTB protein was purified using glutathione-agarose and desalted using a PD-10 (GE Healthcare) gel filtration column.
N-terminally acetylated 11-residue peptides were synthesized using standard chemistry in situ (PepSpots) on cellulose based matrix (Jerini Biotools). To ensure protein accessibility, each peptide contained a 4-residue spacer consisting of a glycine and 3 β-alanines. All peptides were immobilized via their C-termini. […] Prior to usage, peptide array membranes were washed in binding buffer (20 mM Hepes pH 7.3, 137 mM NaCl, 5 mM KCl, 0.05% Tween-20) and blocked with 5% filtered bovine serum albumin in the same buffer. […] After washing in binding buffer (3×10 min), bound PTB was detected using enhanced chemiluminescence and standard X-ray film.
Figure 4 Peptide array experiment. […] Bound PTB domain was detected using streptavidin-HRP and enhanced chemiluminescence. […]

SYF cells = assay: Anti-phosphotyrosine Western blotting of SYF cell lysates; format: cell-based, mammalian; conditions: 0.1 or 1.0 mM sodium orthovanadate, 20 minutes, 37°C; Fig. S4B
Description: SYF cells were cultured in Dulbecco's modified Eagle's medium (Mediatech, Inc.) supplemented with 10% fetal bovine serum (Sigma) and 1000 UI/ml penicillin, 1000 UI/ml streptomycin and 25 ng/ml amphotericin B (Mediatech, Inc.). SYF cells (2.25×10^6) were plated in 15-cm diameter dishes and transfected after 24 hours using 5–15 µg of DNA and 2 µl TransIT per µg DNA. After 48 hours, the cells were harvested, washed twice with PBS and lysed using radioimmune precipitation assay (RIPA) buffer (50 mM Tris-HCl pH 7.4, 150 mM NaCl, 5 mM EDTA, 1% sodium deoxycholate, 1% Nonidet P-40) supplemented with the protease inhibitors leupeptin (10 µg/ml), aprotinin (10 µg/ml), PMSF (200 µM) and the phosphatase inhibitors Na3VO4 (0.2 mM) and NaF (10 mM). Lysates (50 µg) were separated by 10% SDS-PAGE, transferred to PVDF membranes and probed with the appropriate antibodies. For immunoprecipitation, cell lysates (100 µg) were incubated overnight at 4°C with 40 µl of EZview red anti-Flag M2 affinity gel pre-equilibrated with RIPA buffer in a total volume of 1 ml. The immunocomplexes were washed 4 times, eluted from the beads by adding Laemmli buffer, separated by SDS-PAGE, transferred to PVDF membranes and probed with the appropriate antibodies.
Whole cell lysates were analyzed by SDS-PAGE and Western blotting with anti-pTyr, anti-FLAG, or anti-tubulin antibodies, as indicated. […]

Substance: EPQpYEEIG [Src SH2 ligand peptide linked to Affi-Gel 15 resin]
- binding to purified HMTK1 (HMTK1 [1]): bound
- binding to purified Src (c-Src): bound
- binding to isolated HMTK1 PTB domain [2]: pYEEI-binding activity was localized to the PTB domain; also recorded: bound
- binding to wild-type HMTK1 (SYF lysate) [3]: bound
- binding to ΔPTB HMTK1 (SYF lysate) (FLAG-tagged ΔPTB HMTK1): did not

Substance: KKAEEEIYGEFEANFTNPVpYATLG [pTyr peptide]
- binding to purified HMTK1 (HMTK1 [4]): bound
- phosphorylation by HMTK1 compared to Phe control (HMTK1 [5]; listed as pTyr-containing peptide): preferentially phosphorylated
- phosphorylation by HMTK1 compared to Phe control (HMTK1 [5]; listed as synthetic peptide containing this sequence (with pTyr)): phosphorylated more efficiently
- Vmax (HMTK1 [6]): 4.9 µmol/min/mg enzyme
- Km (HMTK1 [6]; nonlinear fitting): 33 µM
- Vmax (Hck) (Hck): 3.0 µmol/min/mg enzyme

Substance: TNFTNPVYATLG
- binding of biotinylated PTB domain to array peptides, phosphorylated vs unphosphorylated (HMTK1 PTB domain): bound much more strongly in the phosphorylated state

Substance: sodium orthovanadate
- overall phosphorylation in SYF cells (SYF cells): enhanced overall phosphorylation

From paper PMC3082566, “PTB Domain-Directed Substrate Targeting in a Tyrosine Kinase from the Unicellular Choanoflagellate Monosiga brevicollis” (PLoS ONE, 2011)
